Here are results for three compounds from patent publication US20030027870A1, “Fullerene derivatives that modulate nitric oxide synthase and clamodulin activity” (priority 2001, published 2003).

One assay concerns the target T1, iNOS (Mus musculus, UniProt P29477).
T1 construct: Expression of iNOS was induced with 5 μg/mL of Escherichia coli lipopolysaccharide and 50 units/mL of mouse γ-interferon; endogenous in cells; host or cells: RAW 264.7 macrophages induced with LPS and interferon-gamma; enzyme purified on 2',5'-ADP-agarose and DEAE-cellulose
Description: Citrulline formation assay, iNOS. The class given is biochemical, murine. The following applies: read-out: IC50 for Inhibition of Citrulline Formation. The method, then: Cytokine-inducible NOS was purified from murine RAW 264.7 macrophages grown in DMEM/Hepes, pH 7.5, supplemented with 10% fetal bovine serum. Expression of iNOS was induced with 5 μg/mL of Escherichia coli lipopolysaccharide and 50 units/mL of mouse γ-interferon. Homogeneous preparation of the iNOS was obtained through sequential purification on 2′,5′-ADP-agarose and DEAE-cellulose as described previously (Bryk, R. and Wolff, R. (1998) Biochemistry 37:4844-4852). Purified iNOS was about 95% pure as judged by a Coomassie-stained SDS-PAGE.
(§1) Citrulline formation by NOS isoforms was measured in 150 μL reaction mixtures containing 30 mM Hepes, pH 7.5, 1 mM DTT, 120 nM L-[2,3-^3H]-arginine without or with unlabeled arginine, 1 mM EGTA, 0.85 mM Ca^2+ (when present), 6 μM CaM (calmodulin, when present), 100 μM NADPH, and 300 μM BH4. Incubations were initiated by the addition of enzyme and reaction mixtures incubated for 30 min at 30° C. in duplicate and reactions stopped and analyzed as described by Wolff and Datto (Wolff and Datto, 1992). When citrulline formation was measured as a function of CaM concentration 1.5 mM Ca^2+ was employed in the assay Assay of NADPH-Oxidase Activity.

Assay [1] concerns the target T2, nNOS (Rattus norvegicus, UniProt P29476).
T2 construct: endogenous in cells; host or cells: rat GH3 pituitary cells; enzyme purified on 2',5'-ADP-agarose and calmodulin-Affi Gel 15 agarose
Kind of assay: Citrulline formation assay, nNOS. It counts as biochemical. The following applies: read-out: IC50 for Inhibition of Citrulline Formation. How it is done: (§2) Neuronal NOS was purified from rat GH3 pituitary cells grown in Ham's F-10 supplemented with 12.5% horse serum and 3% fetal bovine serum. Cells were homogenized in 5 volumes of 50 mM Mops, pH 7.4, 1 mM EGTA, 1 mM DTT, 100 mM NaCl, 0.5% CHAPSO, 50 μM BH4, 100 μM leupeptin, and 10 μM E64. A postmitochondrial supernatant fraction was generated by centrifugation and was affinity-purified on 2′,5′ADP-agarose as reported previously (Wolff, D. J. and Datto, G. (1992) Biochem. J. 284:201-206). The affinity-purified proteins were eluted with 50 mM Mops, pH 7.4, 1 mM EGTA, 1 mM DTT, 5 mM NADPH, 0.1% CHAPSO, 150 mM NaCl, 50 μM BH4, 100 μM leupeptin, and 10 μM E64. […] Fractions containing nNOS as determined by citrulline formation assay were concentrated with a Centriprep 30 (Amicon).
Citrulline formation by NOS isoforms was measured in 150 μL reaction mixtures containing 30 mM Hepes, pH 7.5, 1 mM DTT, 120 nM L-[2,3-^3H]-arginine without or with unlabeled arginine, 1 mM EGTA, 0.85 mM Ca^2+ (when present), 6 μM CaM (calmodulin, when present), 100 μM NADPH, and 300 μM BH4. Incubations were initiated by the addition of enzyme and reaction mixtures incubated for 30 min at 30° C. in duplicate and reactions stopped and analyzed as described by Wolff and Datto (Wolff and Datto, 1992). […]

The next assay deals with T3, eNOS (Bos taurus, UniProt P29473).
T3 construct: Bovine pulmonary arterial endothelial NOS (ENOS) was prepared; from tissue; host or cells: bovine pulmonary arterial endothelium
Description: Citrulline formation assay, eNOS. The following applies: read-out: IC50 for Inhibition of Citrulline Formation. The class given is biochemical, Bovine. The method, then:
Bovine pulmonary arterial endothelial NOS (ENOS) was prepared and characterized as described previously (Wolff, D. J. et al. (1994) Arch. Biochem. Biophys. 312:360-366).
as §1

Assay [2] deals with T2, nNOS. Description: NADPH-oxidase activity (NADPH consumption) of nNOS. It counts as biochemical. How it is done:
(§3) Neuronal NOS was purified from rat GH3 pituitary cells grown in Ham's F-10 supplemented with 12.5% horse serum and 3% fetal bovine serum. Cells were homogenized in 5 volumes of 50 mM Mops, pH 7.4, 1 mM EGTA, 1 mM DTT, 100 mM NaCl, 0.5% CHAPSO, 50 μM BH4, 100 μM leupeptin, and 10 μM E64. A postmitochondrial supernatant fraction was generated by centrifugation and was affinity-purified on 2′,5′ADP-agarose as reported previously (Wolff, D. J. and Datto, G. (1992) Biochem. J. 284:201-206). The affinity-purified proteins were eluted with 50 mM Mops, pH 7.4, 1 mM EGTA, 1 mM DTT, 5 mM NADPH, 0.1% CHAPSO, 150 mM NaCl, 50 μM BH4, 100 μM leupeptin, and 10 μM E64. The eluate was adjusted to contain 2.5 mM Ca^2+ and was adsorbed to a calmodulin-Affi Gel 15 agarose column equilibrated in 50 mM Mops, 1 mM EGTA, 2.5 mM Ca^2+ 0.1% CHAPSO, 150 mM NaCl, 25 μM arginine, 1 mM DTT, 50 μM BH4, 100 μM leupeptin, and 10 μM E64. The column was washed with equilibration buffer containing 500 mM NaCl but without arginine, and nNOS was eluted with equilibration buffer containing 2.5 mM EGTA but without Ca^2+ or arginine. Fractions containing nNOS as determined by citrulline formation assay were concentrated with a Centriprep 30 (Amicon).
Standard reaction mixtures of 1 mL volume in quartz cuvettes contained 50 mM Hepes, pH 7.4, 150 μM NADPH, 6 μM CaM, 1 mM EGTA, 0.85 mM Ca^2+ and 0.15 μM BH4. Reactions were initiated by the addition of nNOS enzyme and NADPH consumption was measured from the change in light absorbance at 340 nm as compared to an identical reference cuvette without enzyme using an extinction coefficient of 6.22 mM^−1 cm^−1.

The target in assay [3] is T2, nNOS. Description: NO formation assay (oxyhemoglobin to methemoglobin), nNOS. It counts as biochemical. The following applies: multisite, positively cooperative inhibition of nNOS NO formation. How it is done: as §2
Nitric oxide production over time was measured spectrophotometrically at 401 nm by the conversion of oxyhemoglobin to methemoglobin (Noack, E. et al. (1992) Neuroprotocols 1:133-139). […] Methemoglobin formation was monitored against a reference cuvette containing complete reaction mixture without enzyme. NO production was calculated using an extinction coefficient of 38 mM^−1 cm^−1 (Noack et al.,1992).

For assay [4], the target named is T2, nNOS. Kind of assay: Cytochrome c reductase assay of nNOS. The following applies: at concentrations as high as 300 μM. It counts as biochemical. How it is done:
as §3, with “The column was washed with equilibration buffer containing 500 mM NaCl but without arginine, and nNOS was eluted with equilibration buffer containing 2.5 mM EGTA but without Ca^2+ or arginine.” left out
The cytochrome c reductase activity of nNOS was determined as described previously, (Cooper et al. (2000) Arch. Biochem. Biophys. 375:183-194) in the presence of 1 mM EGTA, 2 mM Ca^2+, and 10 μg/ml CaM. An extinction coefficient of 21 mM^−1 cm^−1 (22) was used to quantify cytochrome c reduction.

Another assay concerns the target T4, nNOS dimers (Rattus norvegicus, UniProt P29476).
T4 construct: endogenous in cells; host or cells: rat GH3 pituitary cells
Description: Sucrose density gradient centrifugation of nNOS. The following applies: fully inhibitory concentrations. The method, then: Samples of nNOS were either unadjusted (control) or were adjusted to 50 μM C3-tris-malonyl-C60-fullerene and were applied to a 5-20% sucrose gradient containing 50 mM Mops, pH 7.4, 150 mM NaCl, 1 mM EGTA, 1 mM DTT, 0.3% CHAPSO, and 10 μM BH4, either without (control) or containing 50 μM C3-tris-malonyl-C60-fullerene. Gradients were run at 35,000 rpm for 18 h at 4° C. in an L5-L5 Beckman Ultracentrifuge using an SW41 rotor. Fractions (375 μL) were collected using an ISCO density gradient fractionator, Model 185. The fractions from the gradient were kept on ice and portions were assayed for cytochrome c reductase activity (measures both monomers and dimers) and citrulline forming activity (measures dimers exclusively). Hemoglobin (4.09S), catalyze (11.9S), and thyoglobulin (19.4S) were run in a separate tube as sedimentation markers.

The target in assay [5] is T5, nNOS.
T5 construct: Bovine brain calmodulin was prepared; endogenous in cells; host or cells: rat GH3 pituitary cells (nNOS); bovine brain (calmodulin)
Kind of assay: CaM antagonists inhibiting citrulline formation by nNOS at 6 nM CaM. The class given is biochemical, rat. The following applies: 30-min incubation.
Description: Cells were homogenized in 5 volumes of 50 mM Mops, pH 7.4, 1 mM EGTA, 1 mM DTT, 100 mM NaCl, 0.5% CHAPSO, 50 μM BH4, 100 μM leupeptin, and 10 μM E64. […] Fractions containing nNOS as determined by citrulline formation assay were concentrated with a Centriprep 30 (Amicon).

As usually defined, the IC50 is the concentration that gives 50% inhibition.

T4 sequence (P29476 whole entry): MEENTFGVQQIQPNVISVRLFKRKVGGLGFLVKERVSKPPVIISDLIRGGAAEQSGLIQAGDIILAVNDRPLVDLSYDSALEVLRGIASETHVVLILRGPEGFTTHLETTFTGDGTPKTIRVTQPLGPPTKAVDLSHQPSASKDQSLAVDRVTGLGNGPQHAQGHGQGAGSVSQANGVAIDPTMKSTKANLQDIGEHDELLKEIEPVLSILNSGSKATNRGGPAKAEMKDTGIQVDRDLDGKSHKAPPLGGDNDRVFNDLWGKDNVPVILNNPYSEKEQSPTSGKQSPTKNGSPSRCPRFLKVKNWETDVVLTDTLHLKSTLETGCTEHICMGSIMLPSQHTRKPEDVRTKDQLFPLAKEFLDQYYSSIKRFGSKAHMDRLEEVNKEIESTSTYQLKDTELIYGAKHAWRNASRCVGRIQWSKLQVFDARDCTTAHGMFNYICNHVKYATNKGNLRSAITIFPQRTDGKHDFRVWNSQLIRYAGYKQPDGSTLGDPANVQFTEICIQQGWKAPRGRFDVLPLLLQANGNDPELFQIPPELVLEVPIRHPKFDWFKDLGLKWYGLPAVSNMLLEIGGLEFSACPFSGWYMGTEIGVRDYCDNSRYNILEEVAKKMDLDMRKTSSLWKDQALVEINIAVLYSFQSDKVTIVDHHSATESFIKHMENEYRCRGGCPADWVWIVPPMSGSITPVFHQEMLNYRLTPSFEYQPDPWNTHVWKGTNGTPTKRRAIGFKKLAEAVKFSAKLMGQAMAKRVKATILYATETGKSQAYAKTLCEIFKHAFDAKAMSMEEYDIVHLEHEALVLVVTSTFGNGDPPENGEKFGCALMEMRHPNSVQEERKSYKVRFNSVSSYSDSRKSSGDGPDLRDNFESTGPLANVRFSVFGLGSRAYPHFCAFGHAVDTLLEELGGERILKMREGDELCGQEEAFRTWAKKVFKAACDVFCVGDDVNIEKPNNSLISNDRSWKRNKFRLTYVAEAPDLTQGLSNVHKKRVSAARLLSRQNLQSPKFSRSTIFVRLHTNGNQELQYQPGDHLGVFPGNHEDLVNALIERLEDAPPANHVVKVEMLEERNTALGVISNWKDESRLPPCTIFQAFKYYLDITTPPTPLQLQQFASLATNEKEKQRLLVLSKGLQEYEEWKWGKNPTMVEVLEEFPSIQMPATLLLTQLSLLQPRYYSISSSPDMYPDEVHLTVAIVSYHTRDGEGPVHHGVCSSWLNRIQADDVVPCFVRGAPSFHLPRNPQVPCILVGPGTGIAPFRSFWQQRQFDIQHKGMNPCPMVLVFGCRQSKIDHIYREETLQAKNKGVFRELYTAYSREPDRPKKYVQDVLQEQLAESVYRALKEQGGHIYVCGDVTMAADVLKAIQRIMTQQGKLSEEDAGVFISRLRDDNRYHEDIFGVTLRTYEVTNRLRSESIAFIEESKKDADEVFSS

With “1,2:34,35:40,41-tris(methano)[60] fullerene-61, 61, 62, 62, 63, 63 hexacarboxylic acid, (trans-3, trans-3, trans-3) D3 symmetry isomer [D3-Tris malonyl adduct diacid]”, the values for the concentration for half-maximal inhibition (IC50) on iNOS, at nNOS [1] and on eNOS were 317 µM, 86 µM and 143 µM, respectively. For the same compound, the “inhibition of arginine-independent NADPH-oxidase activity of nNOS (in words)” value at nNOS [2] is on record as “inhibited”.

Take “1,2:18,36:31,32-Tris(methano)[60] fullerene-61, 61, 62, 62, 63, 63 hexa-carboxylic acid, (e,e,e) C3 symmetry isomer [C3-Tris malonyl adduct diacid]”: the IC50 at iNOS is 123 µM; on nNOS [1] it was 24 µM; on eNOS, 17 µM; on nNOS [2] (arginine-independent), 22 µM. In addition, the “Hill coefficient of inhibition” value on nNOS [3] is given as 2.0. The “inhibition of arginine-independent NADPH-oxidase activity of nNOS (in words)” value against nNOS [2] is “inhibited”. For the same compound, the “effects on cytochrome c reductase activity of nNOS” value on nNOS [4] is “no effects”. For the same compound, at nNOS dimers, the “dissociation of nNOS dimers into monomers” value is reported as “did not produce a dissociation”.

For the compound `Clc1ccc(C(c2ccc(Cl)cc2)n2cc[n+](CC(OCc3ccc(Cl)cc3Cl)c3ccc(Cl)cc3Cl)c2)cc1` (stereo not shown) [Calmidazolium], inhibition at nNOS [5] was half-maximal at 273 nM (IC50).
